Where two headings read alike, the source gives them in different places.
Tested on: RPMI 2650 cells
Description: RPMI 2650 cells were used to evaluate in vitro the possible CS-OA NE cytotoxicity as well as Fer-Me and eugenol cell uptake.
RPMI 2650 cells were cultured on 75 cm^2 polystyrene cell culture flasks in Advanced Minimum Essential Medium (A-MEM), which was supplemented with 10% fetal bovine serum (FBS), 2 mM L-glutamine, 100 IU/mL penicillin, and 100 μg/mL streptomycin. The cells were maintained in a humidified atmosphere containing 5% CO2 at 37 °C. Cells were split twice using trypsin-EDTA at 37 °C before being seeded and allowed to grow to approximately 90% confluence for 3-(4,5-dimethylthiazol-2-yl)-2,5-diphenyltetrazolium (MTT) assays and uptake studies. Cell counting was performed using Scepter™ 2.0 handheld automated cell counter (Merck Millipore, Milan, Italy).
RPMI 2650 cells were seeded in a 12-well plate at a density of 8 × 10^4 cells/well containing 2 mL of culture A-MEM. […] The corresponding solution of pure compounds (approximated to 250 µM and 600 µM concentrations of Fer-Me and eugenol, respectively), and raw Fer-Me (corresponding to a 250 µM solution) added directly to the wells as powder, were used as comparison. In particular, 2 mL of diluted CS-OA NE or the corresponding solution of pure compounds was added to the test wells, and the plate was incubated for pre-determined interval times (10, 30, and 60 min) in a humidified 5% CO2 atmosphere at 37 °C. As for raw Fer-Me incubation, 0.1 mg was accurately weighed (analytical balance Sartorius CP 225D), added to each well containing 2 mL of complete A-MEM, and incubated at 37 °C in an orbital shaker for the same pre-determined interval times above indicated. All media were removed at the end of the incubation. […] After thawing, the lysate was centrifuged twice (16,000× g for 10 min) and the supernatant was immediately injected into the HPLC apparatus (20 μL) to quantify Fer-Me and eugenol (see below). The final number of cells was evaluated on untreated wells after their trypsinization and counted using the Scepter^TM 2.0 automated cell counter (Merck Millipore, Milan, Italy). Each reported value represents the mean of three independent incubation experiments expressed as nanomoles of compounds for 10^6 cells. The uptake efficiencies were calculated as the compound amount quantified in cell lysate 10 min after the onset of the incubation compared to the initial compound amount incubated in cell media (%). […]
The quantification of eugenol and Fer-Me was performed by using a modular HPLC system composed of a pump (model LC-40D), DAD detector (model SPD-M40, Shimadzu, Kyoto, Japan), as well as an injection valve with a 20 μL sample loop (model 7725; Rheodyne, IDEX, Torrance, CA, USA). […]

COC(=O)/C=C/c1ccc(O)c(OC)c1 [Fer-Me, methyl ferulate]
uptake efficiency at 10 min: 0.80 ± 0.12%

C=CCc1ccc(O)c(OC)c1 [eugenol]
intracellular amount (human, 10 min, 600 µM): 60.80 ± 5.09 nmol/10^6 cells | uptake efficiency at 10 min (human, 10 min, 600 µM): 0.77 ± 0.10% | intracellular amount (human, 60 min, 600 µM): 57.41 ± 2.80 nmol/10^6 cells

From article PMC11945475, “Nasal Administration of a Nanoemulsion Based on Methyl Ferulate and Eugenol Encapsulated in Chitosan Oleate: Uptake Studies in the Central Nervous System” (Pharmaceutics, 2025)
